Assay results from ChEMBL document CHEMBL6182878, “Discovery of novel transforming growth factor β type 1 receptor inhibitors through structure-based virtual screening, preliminary structure-activity relationship study, and biological evaluation in hepatocellular carcinoma” (Bioorg Med Chem, 2025).
Activity calls are given as the source filed them. No cut-off for these calls is given here.

How the values were obtained:
[1] = system: Hep 3B2; test: Synergistic antiproliferative activity against human Hep3B cells at 1.56 to 3.12 uM in presence of sorafenib; format: functional, cell-based; settings: dose 1.56-3.12 µM
[2] = system: Hep 3B2; test: Growth inhibition of human Hep3B cells incubated for 72 hrs by CCK-8 assay; format: functional
[3] = system: Hep 3B2; test: Induction of apoptosis in human Hep3B cells at 10 uM incubated for 48 hrs by Annexin V-FITC/PI staining based flow cytometry; format: functional, cell-based
[4] = target: Mothers against decapentaplegic homolog 2 (Homo sapiens) (UniProt Q15796); test: Inhibition of TGFbeta-induced SMAD2 phosphorylation at S465/467 residues in serum-starved human Hep3B cells preincubated with compound for 30 mins followed by TGFbeta addition and measured after 30 mins by Western blotting analysis; format: cell-based; settings: dose 1-10 µM, time 60.0 min
Chain of Mothers against decapentaplegic homolog 2 (Homo sapiens) (Q15796 whole entry): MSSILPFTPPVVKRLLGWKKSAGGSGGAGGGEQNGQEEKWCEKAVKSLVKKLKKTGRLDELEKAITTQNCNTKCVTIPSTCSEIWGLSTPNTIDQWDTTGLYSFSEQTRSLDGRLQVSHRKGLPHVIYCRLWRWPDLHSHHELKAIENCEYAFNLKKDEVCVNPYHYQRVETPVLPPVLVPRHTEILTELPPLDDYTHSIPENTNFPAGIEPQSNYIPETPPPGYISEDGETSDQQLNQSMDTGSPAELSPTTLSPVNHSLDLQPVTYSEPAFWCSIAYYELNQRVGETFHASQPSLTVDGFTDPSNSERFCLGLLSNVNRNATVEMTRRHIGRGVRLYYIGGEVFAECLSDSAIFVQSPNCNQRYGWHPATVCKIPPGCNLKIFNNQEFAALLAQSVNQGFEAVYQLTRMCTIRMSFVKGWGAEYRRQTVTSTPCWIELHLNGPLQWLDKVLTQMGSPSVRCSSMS

[5] = Inhibition of TGFbeta-dependent SMAD2/3 phosphorylation in mouse NIH3T3 cells incubated for 24 hrs by luciferase reporter assay; settings: NIH3T3, 24 h
[6] = system: Hep 3B2; test: Induction of apoptosis in human Hep3B cells at 10 uM incubated for 48 to 72 hrs in presence of sorafenib by Annexin V-FITC/PI staining based flow cytometry; format: functional, cell-based; settings: time 48-72 hrs
[7] = system: Hep 3B2; test: Induction of apoptosis in human Hep3B cells at 5 uM incubated for 72 hrs by Annexin V-FITC/PI staining based flow cytometry; format: functional, cell-based

Row | inhibition [4] | EC50 [5] | Structure (SMILES) | Activity [1] | GI50 [2] | Activity [3] | Activity [6] | Activity [7]
1 | Dose-dependent-effect | 160 nM | Cc1nc(NS(=O)(=O)c2c[nH]c3ncccc23)ccc1Cl | Active; Compound Showed Moderate Activity | 2280 nM | Active | Active | –
2 | – | 214 nM | O=S(=O)(Nc1ccc(Cl)cn1)c1c[nH]c2ncccc12 | – | 2860 nM | – | – | –
3 | – | 534 nM | COc1ccc(NS(=O)(=O)c2c[nH]c3ncccc23)cc1 | – | 5710 nM | – | – | –
4 | – | – | CNC(=O)c1cc(Oc2ccc(NC(=O)Nc3ccc(Cl)c(C(F)(F)F)c3)cc2)ccn1 | – | – | – | – | Active
5 | Dose-dependent-effect | 47.7 nM | Cc1cccc(-c2nn3c(c2-c2ccnc4ccc(C(N)=O)cc24)CCC3)n1 [GALUNISERTIB] | – | 1070 nM | – | – | –
